# From patent publication US8357659B2, “Method of treating pain or itching with APETx2 peptide toxin” (priority 2008, dated 2013)
# How the values were obtained:
# [1] = tested on: ASIC type current of cutaneous neurons of the spinal ganglia; test: Whole cell patch clamp of native ASIC currents in cutaneous neurons of the spinal ganglia; type: cell-based, rat
# Method: The neurons of the dorsal root ganglion (spinal ganglia or DRG) innervating the skin were labelled by subcutaneous injections of 5×1 μl of Dil fluorescent dye (5% DMSO, Molecular Probes) in the dorsal side of the rats' hind paws. The dye was injected two weeks before the rats were sacrificed in order to prepare a primary culture of dorsal root ganglion.
# The lumbar dorsal root ganglia L3-L6 of Wistar rats (8-11 weeks) were dissected bilaterally and separated enzymatically with 0.1% collagenase. The cells were subsequently plated on 35 mm Petri dishes covered with collagen and cultured at 37° C. (95% air/5% CO2) in DMEM medium containing 5% of foetal calf serum. The electrophysiological experiments were performed 1 to 8 days after seeding.
# (§1) The whole cell configuration of the patch clamp method was used ([ref. 48]) in order to measure the membrane currents (imposed voltage) or the membrane potentials (imposed current). The recordings were performed at ambient temperature using an RK-400 amplifier (Bio-Logic Science Instruments) with a 3 kHz low-pass filter (Krohn-Hite). The data were sampled at 10 kHz, digitised using a Digidata 1322A A-D/D-A converter (Axon Instruments) and recorded on a hard disk using pClamp software (version 9.2.0.11, Axon Instruments). The recording probes (1-4 MOhms) contained (in mM): 135 KCl, 2.5 Na2-ATP, 2 MgCl2, 2.1 CaCl2, 5 EGTA, 10 HEPES (pH 7.25 with KOH). Various different buffers and drugs of interest were added to the transfected cells considered individually using an internally developed microinfusion system controlled by microelectrovalves (Sirai, Italy) allowing rapid changes of solution. The control bath solution contained (in mM): 145 NaCl, 5 KCl, 2 MgCl2, 2 CaCl2, 10 HEPES (pH 7.4 with NaOH). The MES medium was used instead of the HEPES medium in order to buffer the solution at a pH ranging from 6 to 5, and the ASIC currents were induced by rapid changes of a control solution at pH 7.4 to an acid test solution using the microinfusion system. For the experiments conducted on the DRG neurons, glucose (10 mM) was added to the control bath solution. Hypertonic conditions were obtained by adding mannitol or sucrose to the external bath solutions, as indicated in the text.
# [2] = molecular target: T1, ASIC3 (rat clone) in F-11 cells (Rattus norvegicus, UniProt O35240); test: Whole cell patch clamp of recombinant ASIC3 in transfected F-11 cells; type: cell-based
# T1 construct: expressed in transfected cells; host or cells: F-11 cells, vector pCI-ASIC3r co-transfected with pIRES2-EGFP
# T1 sequence (O35240 1-533): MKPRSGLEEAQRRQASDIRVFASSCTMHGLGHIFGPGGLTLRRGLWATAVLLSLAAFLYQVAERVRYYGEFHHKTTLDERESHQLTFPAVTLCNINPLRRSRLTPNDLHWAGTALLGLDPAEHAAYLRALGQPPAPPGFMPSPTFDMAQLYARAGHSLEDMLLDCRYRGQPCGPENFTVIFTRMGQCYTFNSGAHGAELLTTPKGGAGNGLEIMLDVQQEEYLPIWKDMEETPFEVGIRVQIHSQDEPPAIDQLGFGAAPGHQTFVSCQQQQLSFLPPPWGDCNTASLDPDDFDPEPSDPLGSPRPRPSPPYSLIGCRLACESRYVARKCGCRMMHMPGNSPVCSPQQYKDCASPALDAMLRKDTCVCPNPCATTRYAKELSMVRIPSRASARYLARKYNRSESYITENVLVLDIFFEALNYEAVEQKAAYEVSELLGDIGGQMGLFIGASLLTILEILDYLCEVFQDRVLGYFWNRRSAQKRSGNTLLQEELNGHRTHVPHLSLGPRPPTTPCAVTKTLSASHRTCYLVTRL
# Method: (§2) F-11 cells (refs. 44, 45, 46, 47]) were cultured in 5% of CO2 at a density of 50,000 cells per 35 mm Petri dish. The culture medium contained HAM F-12 medium (Invitrogen) supplemented with 15% foetal bovine serum (ICN Biomedicals), 1×HAT (sodium hypoxanthine, aminopterine and thymidine), 200 μg/ml of allo-4-hydroxy-L-proline (Sigma-Aldrich) and 1% antibiotics. One day after seeding, the cells were transfected with ASIC1a or ASIC3 DNAc (rat clones) using Lipofectamine™ (Invitrogen) according to the manufacturer's instructions using the vectors pCI-ASIC1ar+pIRES2-EGFP (ratio 1:2) or pCI-ASIC3r+pIRES2-EGFP (ratio 1:10) ([ref. 36]), quoted above). For the experiments concerning the human ASIC3 clone (refer to experiments on the effects of the APETx2 toxin on the human form of the ASIC3 channel), the cells were transfected with the DNAc of human ASIC3 using the transfection agent JetPEI (Polypus Transfection) according to the manufacturer's instructions with the aid of the vector pASIC3h-IRES-EGFP. The cells were used for the patch clamp experiments (an electrophysiological method for recording ionic currents travelling through cell membranes) 2 to 4 days after transfection.
# as §1
# [3] = molecular target: T2, ASIC1a (rat clone) in F-11 cells (Rattus norvegicus, UniProt P55926); test: Whole cell patch clamp of recombinant ASIC1a in transfected F-11 cells; type: cell-based
# T2 construct: expressed in transfected cells; host or cells: F-11 cells, vector pCI-ASIC1ar co-transfected with pIRES2-EGFP
# T2 sequence (P55926 1-526): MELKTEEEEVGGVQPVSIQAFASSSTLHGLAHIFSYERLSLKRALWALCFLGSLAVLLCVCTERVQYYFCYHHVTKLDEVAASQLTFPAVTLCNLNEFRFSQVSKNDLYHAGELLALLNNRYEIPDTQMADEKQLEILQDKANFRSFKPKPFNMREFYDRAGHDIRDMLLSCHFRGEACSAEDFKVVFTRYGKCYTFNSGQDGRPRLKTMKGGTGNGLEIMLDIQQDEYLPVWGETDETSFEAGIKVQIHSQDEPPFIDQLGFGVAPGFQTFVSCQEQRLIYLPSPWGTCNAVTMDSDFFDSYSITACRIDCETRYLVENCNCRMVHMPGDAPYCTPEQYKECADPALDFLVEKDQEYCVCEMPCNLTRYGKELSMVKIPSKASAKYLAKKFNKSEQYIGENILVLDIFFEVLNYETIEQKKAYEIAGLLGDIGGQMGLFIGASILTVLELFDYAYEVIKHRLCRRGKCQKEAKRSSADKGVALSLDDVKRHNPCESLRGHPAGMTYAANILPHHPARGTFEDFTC
# Method: as §2
# The whole cell configuration of the patch clamp method was used ([ref. 48]) in order to measure the membrane currents (imposed voltage) or the membrane potentials (imposed current). The recordings were performed at ambient temperature using an RK-400 amplifier (Bio-Logic Science Instruments) with a 3 kHz low-pass filter (Krohn-Hite). The data were sampled at 10 kHz, digitised using a Digidata 1322A A-D/D-A converter (Axon Instruments) and recorded on a hard disk using pClamp software (version 9.2.0.11, Axon Instruments). The recording probes (1-4 MOhms) contained (in mM): 135 KCl, 2.5 Na2-ATP, 2 MgCl2, 2.1 CaCl2, 5 EGTA, 10 HEPES (pH 7.25 with KOH). Various different buffers and drugs of interest were added to the transfected cells considered individually using an internally developed microinfusion system controlled by microelectrovalves (Sirai, Italy) allowing rapid changes of solution. […]
# [4] = tested on: cutaneous pain induced by moderate acidification; test: Nociceptive behaviour in rats after subcutaneous injection of moderately acidic solutions; type: in vivo, rat
# Method: Adult (7-8 weeks' old) male Wistar rats (Charles River, France) were placed in plastic cages with a nyctohemeral period of 12 h (with light between 8 a.m. and 8 p.m.) and with free access to food and water. The rats were left to acclimatize for at least one week before the experiments. For the behavioural experiments, the rats were placed in a transparent observation chamber where they were acclimatized for 20-30 minutes. They were subsequently immobilised while 20 μl of saline solution (0.9% or 2% of NaCl+20 mM of HEPES, […] or 60 nM of PcTx1 toxin), was administered subcutaneously to the dorsal side of the right hind paw using a 30G needle connected to a 100 μl Hamilton syringe. The nociceptive behaviour (i.e. the number of hind leg quiverings) was recorded over a 5-minute period, starting immediately after the injection ([ref. 59]).
# [5] = tested on: thermal hyperalgesia induced by CFA; test: Inflammation-induced (CFA) thermal hyperalgesia in rats, hotplate at 50° C.; type: in vivo, rat
# Method: Sensitivity to heat of adult male Wistar rats (Charles River, France) was tested by measuring the time taken by the animal to retract one of its hind paws when placed on a hotplate at 50° C. (Bioseb, France), before and after induction of inflammation by subcutaneous injection of a solution of Freund's complete adjuvant (CFA, Sigma-Aldrich, France). The rats were acclimatised to the experimentation room for at least 30 minutes and each measurement was performed in duplicate. An initial measurement was performed before induction of inflammation. The rats were subsequently anaesthetised (isofluorane) while 150 μl of CFA diluted 1:1 with a saline solution (0.9% NaCl) containing either toxins (PcTx1 or APETx2, 120 nM and 20 μM, respectively) or the vehicle was injected (26G needle mounted on a 1 ml syringe) subcutaneously into the plantar side of one of the hind paws. The time taken by the animal to lift the injected hind paw was subsequently measured at 50° C., 2, 4 and 24 hours after the injection of CFA.
# (§3) ASIC3 channel-specific iRNA (no. 1121; CTACACGCTATGCCAAGGA, SEQ ID NO: 1) and its control (no. 1121S; GCTCACACTACGCAGAGAT, SEQ ID NO: 2) were designed in the laboratory and were synthesised by MWG Biotech Company (Germany). The ASIC3-specific iRNA was validated by quantification of the messenger RNA levels by quantitative RT-PCR for each ASIC channel and for the TRPV1 channel, following intrathecal injections into the lumbar region of the spinal cord of rats, at a rate of one injection per day for 3 consecutive days, before the animal was sacrificed. The same procedure was followed before induction of inflammation by CFA. Each injection was 10 μl in volume, containing 2 μg of iRNA mixed with the transfection agent i-Fect (Neuromics) at a ratio of 1 to 4.
# ASIC3 messenger RNA = test: Quantitative RT-PCR of channel messenger RNA levels in spinal ganglia after intrathecal iRNA; type: in vivo, rat; settings: 2 μg per injection, one per day for 3 days, other ASIC and TRPV1 channels not reduced
# Source text: as §3
compound,measurement,setting,value
CCCCC/C=C\C/C=C\C/C=C\C/C=C\CCCC(=O)O [arachidonic acid],excitability of the cutaneous neurons (triggering of the action potential),[1]; FIG. 2C,increased excitability
same,increase of the ASIC current induced by native pH 7.0,"[1]; pH 7.0, n=6, P=0.06",172±65%
same,non-inactivating ASIC3 window current,[2]; FIG. 4D,markedly increased
same,increase of the ASIC3 current,"[2]; activated by pH 6.6, n=7, P=0.45",40±22%
same,increase of the ASIC3 current,"[2]; activated by pH 7.0, n=9",493±84%
same,increase of the ASIC3 current,"[2]; activated by pH 7.2, n=23",547±103%
same,increase of the ASIC1a current,"[3]; pH 6.6, n=2",21±15%
same,increase of the ASIC1a current,"[3]; pH 7.0, n=5, P=0.06",183±54%
same,effect on ASIC1a current,[3]; pH 7.2,does not have any effect
same,quivering score,"[4]; co-injected 2% NaCl (~600 mosmol.kg^−1) and 10 mM AA at pH 6.9, subcutaneous, hind paw, 5-minute period, n=25, versus 11.1±2.54 at pH 6.9 alone",20.42±2.53
OC[C@@H](O)[C@@H](O)[C@H](O)[C@H](O)CO [mannitol],increase of the ASIC3 current by hyperosmolarity,"[2]; 600 mosmol.kg^−1 with mannitol, activated by pH 7.2, n=20",148±20%
"ASIC3 channel-specific iRNA: interfering RNA directed against ASIC3 messenger RNA, CTACACGCTATGCCAAGGA, SEQ ID NO: 1 (listed as DNA, chemistry not given here)",development of inflammatory thermal hyperalgesia,"[5]; intrathecal iRNA during the 3 days preceding CFA, versus random sequence control iRNA",do not develop any inflammatory thermal hyperalgesia
same,expression of the ASIC3 channels in the sensory neurons,ASIC3 messenger RNA,marked and exclusive reduction
"PcTx1: animal peptide toxin, selective inhibitor of the homomer channels ASIC1a (EDCIPKWKGCVNRHGDCCEGLECWKRRRSFEVCVPKTPKT)",inhibition by the toxin of the ASIC type current induced by pH 6.6,"[1]; in 4.7% (2/43) of neurons, ASIC1a homomer current",> 90%
same,inhibition by the toxin of the ASIC type current induced by pH 6.6,"[1]; in 23.3% (10/43) of neurons, ASIC3 type currents",< 10%
same,behaviour in response to acid pain with inflammatory signals,"[4]; pH 6.9 + 2% NaCl + AA, 10 μM APETx2 or 60 nM PcTx1 in injected solution, FIG. 5A",devoid of any significant effect
same,development of thermal hyperalgesia,"[5]; toxin concomitantly injected with CFA (APETx2 20 μM, PcTx1 120 nM), four hours after CFA",devoid of any significant effect
